Experimental data from ChEMBL document CHEMBL1139972, “Dihydro-[1H]-quinolin-2-ones as retinoid X receptor (RXR) agonists for potential treatment of dyslipidemia” (Bioorg Med Chem Lett, 2007).
One block for each compound: values may come before it. Calls of active or inactive are those of the source. The rule behind the calls is not given here.

What was measured:
[1] = biological target: T1, Retinoic acid receptor RXR-alpha (Homo sapiens, UniProt P19793); experiment: Activity at RXRalpha by GAL4DNA cotransfection assay
T1 sequence (P19793 whole entry): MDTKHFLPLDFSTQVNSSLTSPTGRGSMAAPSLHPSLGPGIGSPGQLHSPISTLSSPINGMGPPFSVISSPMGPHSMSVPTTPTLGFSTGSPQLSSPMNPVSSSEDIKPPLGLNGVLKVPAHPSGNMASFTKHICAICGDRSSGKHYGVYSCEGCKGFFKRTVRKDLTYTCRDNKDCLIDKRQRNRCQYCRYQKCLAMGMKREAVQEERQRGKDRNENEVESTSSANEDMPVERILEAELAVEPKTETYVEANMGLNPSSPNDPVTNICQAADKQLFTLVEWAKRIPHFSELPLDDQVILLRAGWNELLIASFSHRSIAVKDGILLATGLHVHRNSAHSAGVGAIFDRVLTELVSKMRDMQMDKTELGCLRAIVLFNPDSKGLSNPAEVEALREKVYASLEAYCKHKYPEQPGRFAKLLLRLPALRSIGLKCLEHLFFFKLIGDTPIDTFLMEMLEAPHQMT

[2] = Activity at RXR-LXR heterodimer assessed as induction of ABCA1 mRNA; parameters: species or system Homo sapiens
Homo sapiens = organism: Homo sapiens; experiment: Activation of RXR-LXR heterodimer assessed as induction of ABCA1 mRNA relative to 5-((3-(1-ethyl-4,4,6-trimethyl-2-oxo-1,2,3,4-tetrahydroquinolin-7-yl)-4-(trifluoromethoxy)phenyl)methylene)thiazolidine-2,4-dione; parameters: concentration or dose not given beside the values
[3] = biological target: T2, Retinoic acid receptor RXR-alpha (Homo sapiens) (UniProt P19793); experiment: Activity at RXRalpha by GAL4DNA cotransfection assay relative to 5-((3-(1-ethyl-4,4,6-trimethyl-2-oxo-1,2,3,4-tetrahydroquinolin-7-yl)-4-(trifluoromethoxy)phenyl)methylene)thiazolidine-2,4-dione; parameters: concentration or dose not given beside the values
T2 sequence (whole entry): T1 sequence (P19793 whole entry)

Rattus norvegicus [4] = experiment: Effect on serum LDL-C level in high cholesterol diet fed Sprague-Dawley rat at 0.3 mg/kg, po after 8 days relative to control; format: functional
Rattus norvegicus [5] = experiment: Effect on serum cholesterol level in high cholesterol diet fed Sprague-Dawley rat at 0.3 mg/kg, po after 8 days relative to control; format: functional
[6] = AUC in rat at 3 mg/kg, po; format: ADME, organism-based; parameters: dose 3 mg/kg, route oral; conditions: plasma
Rattus norvegicus [7] = experiment: Effect on serum triglyceride level in high cholesterol diet fed Sprague-Dawley rat at 10 mg/kg, po after 8 days relative to control; format: functional
[8] = Clearance in rat at 3 mg/kg, po; format: ADME, organism-based; parameters: dose 3 mg/kg, route oral; conditions: in vivo
Rattus norvegicus [9] = experiment: Effect on serum cholesterol level in high cholesterol diet fed Sprague-Dawley rat at 1 mg/kg, po after 8 days relative to control; format: functional
Rattus norvegicus [10] = experiment: Effect on serum LDL-C level in high cholesterol diet fed Sprague-Dawley rat at 10 mg/kg, po after 8 days relative to control; format: functional
Rattus norvegicus [11] = experiment: Effect on serum LDL-C level in high cholesterol diet fed Sprague-Dawley rat at 3 mg/kg, po after 8 days relative to control; format: functional
Rattus norvegicus [12] = experiment: Effect on serum triglyceride level in high cholesterol diet fed Sprague-Dawley rat at 3 mg/kg, po after 8 days relative to control; format: functional
Mus musculus = organism: Mus musculus; experiment: Decrease in blood glucose level in db/db mouse after 11 days; format: functional, organism-based
Rattus norvegicus [13] = experiment: Effect on serum HDL-C level in high cholesterol diet fed Sprague-Dawley rat at 10 mg/kg, po after 8 days relative to control; format: functional
Rattus norvegicus [14] = experiment: Effect on serum triglyceride level in high cholesterol diet fed Sprague-Dawley rat at 0.3 mg/kg, po after 8 days relative to control; format: functional
[15] = Activity at RXR-PPARgamma in human preadipocytes assessed as induction of adipocytes fatty acid binding protein; format: cell-based
Rattus norvegicus [16] = experiment: Effect on serum HDL-C level in high cholesterol diet fed Sprague-Dawley rat at 1 mg/kg, po after 8 days relative to control; format: functional
[17] = Cmax in high cholesterol diet fed Sprague-Dawley rat at 0.3 mg/kg, po after 8 days; format: ADME, organism-based; parameters: dose 0.3 mg/kg, route oral; conditions: in vivo
[18] = Half life in rat at 3 mg/kg, po; format: ADME, organism-based; parameters: dose 3 mg/kg, route oral; conditions: in vivo
Rattus norvegicus [19] = experiment: Effect on serum LDL-C level in high cholesterol diet fed Sprague-Dawley rat at 1 mg/kg, po after 8 days relative to control; format: functional
Rattus norvegicus [20] = experiment: Effect on serum HDL-C level in high cholesterol diet fed Sprague-Dawley rat at 0.3 mg/kg, po after 8 days relative to control; format: functional
Rattus norvegicus [21] = experiment: Effect on serum triglyceride level in high cholesterol diet fed Sprague-Dawley rat at 1 mg/kg, po after 8 days relative to control; format: functional
[22] = Cmax in high cholesterol diet fed Sprague-Dawley rat at 30 mg/kg, po after 8 days; format: ADME, organism-based; parameters: dose 30 mg/kg, route oral; conditions: in vivo
Rattus norvegicus [23] = experiment: Effect on serum HDL-C level in high cholesterol diet fed Sprague-Dawley rat at 3 mg/kg, po after 8 days relative to control; format: functional
[24] = Oral bioavailability in rat at 3 mg/kg; format: ADME, organism-based; conditions: in vivo
Rattus norvegicus [25] = experiment: Effect on serum triglyceride level in high cholesterol diet fed Sprague-Dawley rat at 30 mg/kg, po after 8 days relative to control; format: functional
[26] = Cmax in rat at 3 mg/kg, po; format: ADME, organism-based; parameters: dose 3 mg/kg, route oral; conditions: in vivo
Rattus norvegicus [27] = experiment: Effect on serum cholesterol level in high cholesterol diet fed Sprague-Dawley rat at 3 mg/kg, po after 8 days relative to control; format: functional
Rattus norvegicus [28] = experiment: Effect on serum HDL-C level in high cholesterol diet fed Sprague-Dawley rat at 30 mg/kg, po after 8 days relative to control; format: functional
Rattus norvegicus [29] = experiment: Effect on serum cholesterol level in high cholesterol diet fed Sprague-Dawley rat at 30 mg/kg, po after 8 days relative to control; format: functional
Rattus norvegicus [30] = experiment: Effect on serum LDL-C level in high cholesterol diet fed Sprague-Dawley rat at 30 mg/kg, po after 8 days relative to control; format: functional
Rattus norvegicus [31] = experiment: Effect on serum cholesterol level in high cholesterol diet fed Sprague-Dawley rat at 10 mg/kg, po after 8 days relative to control; format: functional

SMILES: CCN1C(=O)CC(C)(C)c2cc(C)c(-c3cc(/C=C(\C)C(=O)O)ccc3OC(F)(F)F)cc21
- EC50 [1]: 27.9 nM
- EC50 [2]: 100 nM
- Activity (Homo sapiens): 49%
- Activity [3]: 81%

SMILES: CCN1C(=O)CC(C)(C)c2cc(C)c(-c3cc([C@@H]4C[C@H]4C(=O)O)ccc3OC(F)(F)F)cc21
- EC50 [1]: 2.3 nM
- EC50 [2]: > 3000 nM
- EC50 [15]: 581 nM
- Activity [3]: 85%

SMILES: Cc1cc2c(cc1-c1cc(CCC(=O)O)ccc1OC(F)(F)F)N(C)C(=O)CC2(C)C
- EC50 [1]: 45.9 nM
- EC50 [2]: 53 nM
- Activity [3]: 91%

SMILES: CCN1C(=O)CC(C)(C)c2cc(C)c(-c3cc(/C=C\C(=O)O)ccc3OC(F)(F)F)cc21
- EC50 [1]: 39.1 nM
- EC50 [2]: 886 nM
- Activity (Homo sapiens): 75%
- Activity [3]: 97%

SMILES: CCN1C(=O)CC(C)(C)c2cc(C)c(-c3cc(/C(C)=C/C(=O)O)ccc3OC(F)(F)F)cc21
- EC50 [1]: > 10000 nM

Now from value to compound, other results behind:

- AUC [6]: 6130 ng·h/mL
- CL/F [8]: 4.6 mL/min/kg
- EC50 [1]: 7.2 nM
- EC50 [2]: 47 nM
- EC50 [15]: 1200 nM
- Cmax [17]: 58.5 ng/mL
- Activity (Homo sapiens): 70%
- half-life [18]: 24 h
- Cmax [22]: 7510 ng/mL
- bioavailability [24]: 71%
- Cmax [26]: 678 ng/mL
- Activity [3]: 79%
SMILES: CCN1C(=O)CC(C)(C)c2cc(C)c(-c3cc(CCC(=O)O)ccc3OC(F)(F)F)cc21
- Activity (Rattus norvegicus [4]): 53 mg/dL
- Activity (Rattus norvegicus [5]): 343 mg/dL
- Activity (Rattus norvegicus [7]): 270 mg/dL
- Activity (Rattus norvegicus [9]): 313 mg/dL
- Activity (Rattus norvegicus [10]): 35 mg/dL
- Activity (Rattus norvegicus [11]): 46 mg/dL
- Activity (Rattus norvegicus [12]): 253 mg/dL
- Activity (Mus musculus): inactive
- Activity (Rattus norvegicus [13]): 39 mg/dL
- Activity (Rattus norvegicus [14]): 320 mg/dL
- Activity (Rattus norvegicus [16]): 30 mg/dL
- Activity (Rattus norvegicus [19]): 46 mg/dL
- Activity (Rattus norvegicus [20]): 29 mg/dL
- Activity (Rattus norvegicus [21]): 279 mg/dL
- Activity (Rattus norvegicus [23]): 37 mg/dL
- Activity (Rattus norvegicus [25]): 322 mg/dL
- Activity (Rattus norvegicus [27]): 302 mg/dL
- Activity (Rattus norvegicus [28]): 42 mg/dL
- Activity (Rattus norvegicus [29]): 252 mg/dL
- Activity (Rattus norvegicus [30]): 38 mg/dL
- Activity (Rattus norvegicus [31]): 228 mg/dL

- EC50 [2]: > 3000 nM
SMILES: CCN1C(=O)CC(C)(C)c2cc(C)c(-c3cc(C#CC(=O)O)ccc3OC(F)(F)F)cc21

- EC50 [2]: 180 nM
- EC50 [15]: 139 nM
SMILES: CCN1C(=O)CC(C)(C)c2cc(C)c(-c3cc(/C=C4\SC(=O)NC4=O)ccc3OC(F)(F)F)cc21
- Activity (Rattus norvegicus [7]): 286 mg/dL
- Activity (Rattus norvegicus [10]): 41 mg/dL
- Activity (Rattus norvegicus [13]): 47 mg/dL
- Activity (Rattus norvegicus [31]): 267 mg/dL

- EC50 [1]: 361 nM
- EC50 [2]: > 3000 nM
- Activity [3]: 60%
SMILES: COc1ccc(CCC(=O)O)cc1-c1cc2c(cc1C)C(C)(C)CC(=O)N2C(C)C

- EC50 [1]: 1.4 nM
- EC50 [2]: > 3000 nM
- Activity [3]: 100%
SMILES: Cc1cc2c(cc1-c1cc(CCC(=O)O)ccc1OC(F)(F)F)N(CC(F)(F)F)C(=O)CC2(C)C

- EC50 [2]: 1 nM
- Activity (Homo sapiens): 59%
- Activity [3]: 80%
SMILES: Cc1cc2c(cc1-c1cc(CCC(=O)O)ccc1OC(F)(F)F)N(C(C)C)C(=O)CC2(C)C

- EC50 [1]: 37.7 nM
- EC50 [2]: 347 nM
- Activity (Homo sapiens): 160%
- Activity [3]: 99%
SMILES: CCN1C(=O)CC(C)(C)c2cc(C)c(-c3cc(C(C)CC(=O)O)ccc3OC(F)(F)F)cc21 (stereo not given)

- EC50 [2]: > 3000 nM
SMILES: CCN1C(=O)CC(C)(C)c2cc(C)c(-c3cc(OCC(=O)O)ccc3OC(F)(F)F)cc21
